In ChEMBL document CHEMBL3046012, “Synthesis and Cytotoxic Activity of 6-(Substituted-Phenyl)Amino-5,8-Quinazolinediones” (Med Chem Res, 2004):
Values after ≈ are worked out from the molar mass of the structure shown.

Key:
Format in all cases: functional, cell-based
SK-MEL-2 = assay: Cytotoxicity against Homo sapiens (human) SK-MEL-2 cells after 72 hr by MTT assay; settings: SK-MEL-2, 72 h
SK-OV-3 = assay: Cytotoxicity against Homo sapiens (human) SKOV3 cells after 72 hr by MTT assay; settings: SK-OV-3, 72 h
A549 = assay: Cytotoxicity against Homo sapiens (human) A549 cells after 72 hr by MTT assay; settings: A549, 72 h
HCT-15 = assay: Cytotoxicity against Homo sapiens (human) HCT15 cells after 72 hr by MTT assay; settings: HCT-15, 72 h
XF498 = assay: Cytotoxicity against Homo sapiens (human) XF498 cells after 72 hr by MTT assay; settings: XF498, 72 h

| SMILES | IC50 (SK-MEL-2) [µg/mL] | IC50 (SK-OV-3) [µg/mL] | IC50 (A549) [µg/mL] | IC50 (HCT-15) [µg/mL] | IC50 (XF498) [µg/mL] |
| --- | --- | --- | --- | --- | --- |
| O=C1C(Cl)=C(Nc2ccc(Cl)cc2)C(=O)c2cnccc21 | 0.66 (≈ 2.07 µM) | 0.97 (≈ 3.04 µM) | 1.1 (≈ 3.45 µM) | 0.18 (≈ 0.564 µM) | 1.28 (≈ 4.01 µM) |
| O=C1C(Cl)=C(Nc2ccc(I)cc2)C(=O)c2cnccc21 | 0.02 (≈ 0.0487 µM) | 0.04 (≈ 0.0974 µM) | 0.27 (≈ 0.658 µM) | 0.01 (≈ 0.0244 µM) | 0.04 (≈ 0.0974 µM) |
| O=C1C(Cl)=C(Nc2ccc(F)cc2)C(=O)c2cnccc21 | 1.22 (≈ 4.03 µM) | 1.86 (≈ 6.14 µM) | 1.27 (≈ 4.2 µM) | 0.31 (≈ 1.02 µM) | 1.54 (≈ 5.09 µM) |
| O=C1C(Cl)=C(Nc2ccc(Br)cc2)C(=O)c2cnccc21 | 0.23 (≈ 0.633 µM) | 0.29 (≈ 0.798 µM) | 1.96 (≈ 5.39 µM) | 0.1 (≈ 0.275 µM) | 0.22 (≈ 0.605 µM) |
| O=C1C(Nc2ccccc2)=C(Cl)C(=O)c2ncncc21 | 0.04 (≈ 0.14 µM) | 0.19 (≈ 0.665 µM) | 0.33 (≈ 1.16 µM) | 0.03 (≈ 0.105 µM) | 0.28 (≈ 0.98 µM) |
| Cc1ccc(NC2=C(Cl)C(=O)c3ncccc3C2=O)cc1 | 0.42 (≈ 1.41 µM) | 1.27 (≈ 4.25 µM) | 1.14 (≈ 3.82 µM) | 0.33 (≈ 1.1 µM) | 1.26 (≈ 4.22 µM) |
| O=C1C(Nc2ccc(F)cc2)=C(Cl)C(=O)c2ncncc21 | 0.08 (≈ 0.263 µM) | 0.27 (≈ 0.889 µM) | 0.33 (≈ 1.09 µM) | 0.04 (≈ 0.132 µM) | 0.19 (≈ 0.626 µM) |
| O=C1C(Nc2ccc(Cl)cc2)=C(Cl)C(=O)c2ncncc21 | 0.3 (≈ 0.937 µM) | 0.31 (≈ 0.968 µM) | 0.3 (≈ 0.937 µM) | 0.29 (≈ 0.906 µM) | 0.4 (≈ 1.25 µM) |
| O=C1C(Nc2ccc(OC(F)(F)F)cc2)=C(Cl)C(=O)c2ncncc21 | 0.29 (≈ 0.784 µM) | 0.27 (≈ 0.73 µM) | 0.37 (≈ 1 µM) | 0.22 (≈ 0.595 µM) | 0.23 (≈ 0.622 µM) |
| O=C1C(Nc2ccc(I)cc2)=C(Cl)C(=O)c2ncncc21 | 0.3 (≈ 0.729 µM) | 0.27 (≈ 0.656 µM) | 1.51 (≈ 3.67 µM) | 0.28 (≈ 0.68 µM) | 1.33 (≈ 3.23 µM) |
| CCOc1ccc(NC2=C(Cl)C(=O)c3ncncc3C2=O)cc1 | 0.08 (≈ 0.243 µM) | 0.22 (≈ 0.667 µM) | 0.33 (≈ 1 µM) | 0.04 (≈ 0.121 µM) | 0.3 (≈ 0.91 µM) |
| O=C1C(Nc2ccc(C(F)(F)F)cc2)=C(Cl)C(=O)c2ncncc21 | 0.06 (≈ 0.17 µM) | 0.21 (≈ 0.594 µM) | 0.32 (≈ 0.905 µM) | 0.03 (≈ 0.0848 µM) | 0.29 (≈ 0.82 µM) |
| N#Cc1ccc(NC2=C(Cl)C(=O)c3ncncc3C2=O)cc1 | 0.62 (≈ 2 µM) | 0.31 (≈ 0.998 µM) | 1.34 (≈ 4.31 µM) | 0.24 (≈ 0.772 µM) | 1.68 (≈ 5.41 µM) |
| O=C1C(Nc2ccc([N+](=O)[O-])cc2)=C(Cl)C(=O)c2ncncc21 | 0.61 (≈ 1.84 µM) | 1.28 (≈ 3.87 µM) | 2.77 (≈ 8.38 µM) | 0.3 (≈ 0.907 µM) | 15.4 (≈ 46.4 µM) |
| O=C1C(Nc2ccccc2)=CC(=O)c2ncncc21 | 0.01 (≈ 0.0398 µM) | < 0.01 | 0.02 (≈ 0.0796 µM) | 0.01 (≈ 0.0398 µM) | 0.01 (≈ 0.0398 µM) |
| O=C1C(Nc2ccc(F)cc2)=CC(=O)c2ncncc21 | 0.05 (≈ 0.186 µM) | 0.07 (≈ 0.26 µM) | 1.08 (≈ 4.01 µM) | 0.02 (≈ 0.0743 µM) | 0.04 (≈ 0.149 µM) |
| O=C1C(Nc2ccc(Cl)cc2)=CC(=O)c2ncncc21 | 0.01 (≈ 0.035 µM) | 0.01 (≈ 0.035 µM) | 0.02 (≈ 0.07 µM) | < 0.01 | 0.01 (≈ 0.035 µM) |
| O=C1C(Nc2ccc(Br)cc2)=CC(=O)c2ncncc21 | 0.02 (≈ 0.0606 µM) | 0.02 (≈ 0.0606 µM) | 0.09 (≈ 0.273 µM) | 0.01 (≈ 0.0303 µM) | 0.03 (≈ 0.0909 µM) |
| O=C1C(Nc2ccc(I)cc2)=CC(=O)c2ncncc21 | 0.02 (≈ 0.053 µM) | 0.04 (≈ 0.106 µM) | 0.27 (≈ 0.716 µM) | 0.01 (≈ 0.0265 µM) | 0.04 (≈ 0.106 µM) |
| CCOc1ccc(NC2=CC(=O)c3ncncc3C2=O)cc1 | 0.02 (≈ 0.0677 µM) | 0.02 (≈ 0.0677 µM) | 0.16 (≈ 0.542 µM) | 0.02 (≈ 0.0677 µM) | 0.03 (≈ 0.102 µM) |
| Cc1ccc(NC2=CC(=O)c3ncncc3C2=O)cc1 | 0.02 (≈ 0.0754 µM) | 0.03 (≈ 0.113 µM) | 0.02 (≈ 0.0754 µM) | 0.01 (≈ 0.0377 µM) | 0.13 (≈ 0.49 µM) |
| O=C1C(Nc2ccccc2)=C(Cl)C(=O)c2ncccc21 | 1.42 (≈ 4.99 µM) | 1.34 (≈ 4.71 µM) | 2.3 (≈ 8.08 µM) | 0.74 (≈ 2.6 µM) | 1.33 (≈ 4.67 µM) |
| O=C1C(Nc2ccc(F)cc2)=C(Cl)C(=O)c2ncccc21 | 1.39 (≈ 4.59 µM) | 0.5 (≈ 1.65 µM) | 1.25 (≈ 4.13 µM) | 0.18 (≈ 0.595 µM) | 0.36 (≈ 1.19 µM) |
| O=C1C(Nc2ccc(Cl)cc2)=C(Cl)C(=O)c2ncccc21 | 1.3 (≈ 4.07 µM) | 1.33 (≈ 4.17 µM) | 5.03 (≈ 15.8 µM) | 0.34 (≈ 1.07 µM) | 3.31 (≈ 10.4 µM) |
| O=C1C(Nc2ccc(Br)cc2)=C(Cl)C(=O)c2ncccc21 | 1.26 (≈ 3.47 µM) | 0.92 (≈ 2.53 µM) | 4.28 (≈ 11.8 µM) | 0.34 (≈ 0.935 µM) | 2.83 (≈ 7.78 µM) |
| O=C1C(Nc2ccc(I)cc2)=C(Cl)C(=O)c2ncccc21 | 3.3 (≈ 8.04 µM) | 1.62 (≈ 3.95 µM) | 4.29 (≈ 10.4 µM) | 1.27 (≈ 3.09 µM) | 3.61 (≈ 8.79 µM) |
